Measurements: patent US5401748A, “2,14-disubstituted ergolines, their production and use in pharmaceutical compositions” (Schering Aktiengesellschaft, priority 1991, dated 1995)

System: central dopamine receptors
Test: Stereotypy-triggering activity in rats after one-time i.p. pretreatment (method of Horowski and Wachtel)
Type: in vivo, female Wistar rats
Conditions: ip, rat
Procedure: The dopaminergic agonistic effect is determined, for example, with the help of method, described by Horowski and Wachtel, of the registration of stereotypies by observation of behavior (Eur. J. Pharmacol. 36: 373-383, 1976):
Immediately after intraperitoneal test substance or vehicle administration,female Wistar rats (90-110 g) are placed individually in observation cages made from transparent acrylic glass (25×19×13.5 cm). At 30, 60, 120, 240, 360 and 480 minutes after pretreatment, the presence of behavior stereotypies (chewing, licking, gnawing) is registered by observation of the animals for 2 minutes (i.e., of 30th-32nd, 60th-62nd, 120th-122nd minutes, etc.). Animals which during the 2-minute observation period show continuous chewing, licking and gnawing movements (longer than 30 seconds) are considered stereotypic.
The number of animals per treatment group with behavior stereotypies is determined during the various observation times. The different treatment groups consist of n=8 animals each. Average effective dose (ED50) is determined with 95% range of confidence for the various observation times with the help of probit analysis.
At 30, 60, 120, 240, 360 and 480 minutes after i.p. pretreatment with test substance or vehicle, the presence of behavior stereotypies in rats (chewing, licking, gnawing) was determined by observation for 2 minutes (i.e., of 30th-32nd, 60th-62nd, 120th-122nd minutes, etc.).

For `CCCN1C[C@@H](NC(=O)N(CC)CC)C[C@@H]2c3ccc(C)c4[nH]c(C)c(c34)C[C@H]21` [3-(2,14-Dimethyl-6-propyl-8α-ergolinyl)-1,1-diethylurea], the ED50 (0.5 h, 30 min, n=8, 95% range of confidence by probit analysis) was 0.055 mg/kg, the ED50 (1 h, 60 min, n=8, probit analysis) was < 0.025 mg/kg and the ED50 (2 h, 120 min, n=8, probit analysis) was < 0.025 mg/kg. The ED50 (4 h, 240 min, n=8, probit analysis) was < 0.025 mg/kg, the ED50 (6 h, 360 min, n=8, 95% range of confidence by probit analysis) was 0.071 mg/kg and the ED50 (8 h, 480 min, n=8, 95% range of confidence by probit analysis) was 0.072 mg/kg.
